# Results reported in paper PMC11876601 (Molecular Systems Biology, 2025).
# Columns and labels:
# [1] = test system: IKBKE; design: method as in Klaeger et al. (2017); settings: lysate 4 cell line mix (Colo205, K-562, MV-4-11, and SK-N-BE(2)), Kinobeads y, ref Klaeger et al. (2017); cited from earlier work
# [2] = test system: RPS6KA6; design: method as in Klaeger et al. (2017); settings: lysate 4 cell line mix (Colo205, K-562, MV-4-11, and SK-N-BE(2)), Kinobeads y, ref Klaeger et al. (2017); cited from earlier work
# [3] = test system: AP2A1; design: method as in Klaeger et al. (2017); settings: AP2A1, 4 cell line mix lysate, Kinobeads y, ref Klaeger et al. (2017); cited from earlier work
# [4] = test system: protein expression in AsPC-1 cells; test: Time-dependent protein expression analysis (1 µM GEM or 1 µM ATRi, 15 min-24 h); format: cell-based, human; settings: GEM
# Description: Cell culture medium was replaced 24 h after seeding. […] For time point 0, AsPC-1 cells were treated with a vehicle and lysed immediately. The final DMSO concentration in all experiments was 0.2%.
# LC-MS/MS measurement of non-enriched, TMT-labeled peptides from temporal drug perturbation was carried out on an Orbitrap Fusion Lumos Tribrid instrument (Thermo Scientific) coupled to a micro-flow LC system built by combining a modified Vanquish pump and the autosampler of the Dionex UltiMate 3000 nano HPLC System (Thermo Scientific). Dried peptides were reconstituted in 0.1% formic acid and loaded directly onto an Acclaim PepMap 100 C18 column (2 μm particle size, 1 mm × 150 mm, Thermo Scientific) heated at 55 °C. […] Flow rates of sheath, aux, and sweep gas were kept at 32, 5, and 0, respectively. […] The cycle time between MS1 scans was 1.2 s, with a dynamic exclusion duration of 50 s.
# Peptide and protein identification and quantification of time-series raw data was performed with MaxQuant (v2.1.3.0) using the same sequence information as above, with N-terminal acetylation and oxidized methionine as variable modifications and cysteine carbamidomethylation as fixed modification. All other search parameters were set as default. The resulting proteingroups.txt file was filtered to remove potential contaminants and reversed hits. Corrected TMT reporter channel intensities were median-centered, and ratios were calculated between treatments and their respective time-point controls (Appendix Table S6). Proteins were considered conversely regulated if absolute log2 fold change > 2 by at least one drug and oppositely affected by both drugs (up/down) at 24 h.
# [5] = test system: PRKAG2; design: method as in Reinecke et al. (2023); settings: PRKAG2, 5 cell line mix lysate, Kinobeads ε, ref Reinecke et al. (2023), cited from earlier work
# [6] = test system: ABL1; settings: ABL1, 5 cell line mix lysate, Kinobeads ε, ref Reinecke et al. (2023), cited from earlier work
# [7] = test system: TAOK1; design: method as in Reinecke et al. (2023); settings: TAOK1, 5 cell line mix lysate, Kinobeads ε, ref Reinecke et al. (2023), cited from earlier work
# [8] = test system: MAP3K12; design: method as in Reinecke et al. (2023); settings: MAP3K12, 5 cell line mix lysate, Kinobeads ε, ref Reinecke et al. (2023), cited from earlier work
# [9] = molecular target: IGF1R; design: method as in Reinecke et al. (2023); settings: 5 cell line mix lysate, Kinobeads ε, ref Reinecke et al. (2023), cited from earlier work
# [10] = test system: AZI2; settings: AZI2, 5 cell line mix lysate, Kinobeads ε, ref Reinecke et al. (2023), cited from earlier work
# [11] = test system: BUB1; design: method as in Reinecke et al. (2023); settings: BUB1, 5 cell line mix lysate, Kinobeads ε, ref Reinecke et al. (2023), cited from earlier work
# [12] = test system: TAOK2; design: method as in Reinecke et al. (2023); settings: TAOK2, 5 cell line mix lysate, Kinobeads ε, ref Reinecke et al. (2023), cited from earlier work
# [13] = molecular target: CAMK2B; design: method as in Reinecke et al. (2023); settings: 5 cell line mix lysate, Kinobeads ε, ref Reinecke et al. (2023), cited from earlier work
# [14] = molecular target: EGFR; design: method as in Reinecke et al. (2023); settings: 5 cell line mix lysate, Kinobeads ε, ref Reinecke et al. (2023), cited from earlier work
# [15] = test system: TRAF2; design: method as in Reinecke et al. (2023); settings: TRAF2, 5 cell line mix lysate, Kinobeads ε, ref Reinecke et al. (2023), cited from earlier work
structure (smiles),measurement,setting,value
C[C@]12O[C@H](C[C@]1(O)CO)n1c3ccccc3c3c4c(c5c6ccccc6n2c5c31)CNC4=O [Lestaurtinib],EC50,[1],1030 nM
same,EC50,[2],2330 nM
same,EC50,[3],83.7 nM
"Nc1ccn([C@@H]2O[C@H](CO)[C@@H](O)C2(F)F)c(=O)n1 [GEM, Gemcitabine]","Regulation_24h, CLN6 protein expression",[4]; protein CLN6,up
same,"Regulation_24h, E2F6 protein expression",[4]; protein E2F6,up
same,"Regulation_24h, HELZ2 protein expression",[4]; protein HELZ2,up
same,"Regulation_24h, PRKACA protein expression",[4]; protein PRKACA,up
same,"Regulation_24h, RASSF10 protein expression",[4]; protein RASSF10,up
COc1cc(N2CCC(N3CCN(C)CC3)CC2)ccc1Nc1ncc(Cl)c(Nc2ccccc2P(C)(C)=O)n1 [Brigatinib],EC50,[5],510 nM
same,pKDapp,[5],6.48
same,Kd,[5]; read-out: KDapp,329 nM
same,EC50,[6],3460 nM
same,pKDapp,[6],5.72
same,Kd,[6]; read-out: KDapp,1890 nM
same,EC50,[7],847 nM
same,pKDapp,[7],6.25
same,Kd,[7]; read-out: KDapp,563 nM
same,EC50,[8],1040 nM
same,pKDapp,[8],6.25
same,Kd,[8]; read-out: KDapp,563 nM
same,Kd,[9]; read-out: KDapp,1320 nM
same,EC50,[9],2000 nM
same,pKDapp,[9],5.88
same,EC50,[10],1120 nM
same,pKDapp,[10],6.10
same,Kd,[10]; read-out: KDapp,789 nM
same,EC50,[11],6990 nM
same,pKDapp,[11],5.16
same,Kd,[11]; read-out: KDapp,6990 nM
same,EC50,[12],3110 nM
same,pKDapp,[12],5.74
same,Kd,[12]; read-out: KDapp,1830 nM
same,Kd,[13]; read-out: KDapp,48.4 nM
same,EC50,[13],323 nM
same,pKDapp,[13],7.32
same,Kd,[14]; read-out: KDapp,146 nM
same,EC50,[14],184 nM
same,pKDapp,[14],6.84
same,EC50,[15],3940 nM
same,pKDapp,[15],5.48
same,Kd,[15]; read-out: KDapp,3280 nM
